What was measured:
[1] = tested on: excised rat femoral artery contracted with KCl; experiment: Vasodilation of excised rat femoral artery in Magnus tube; details: 0.1 μmol/L to 30 μmol/L, in vitro, n=3 (FIG. 9)
Protocol: The femoral artery vessel (3 mm in width) excised from the rat was placed to a Magnus tube filled with a Krebs-Henseleit solution maintained at 37° C., to which a mixed gas of 95% O2 and 5% CO2 was continuously injected by reference to the method by Abiru et al. (Abiru T, et al., Eur J. Pharmacol. 1995; 281:9-15.). The isometric tension of the vessel was measured with a tension transducer, and the result was recorded with a thermal printer. The vessel was adjusted to a resting tension of 0.75 g. The vessel was contracted by 60 mmol/L (rats) of potassium chloride, and then the Compound 1 or a base was continuously injected to the Magnus tube. At the end of each experiment, […] of papaverine was added in order to determine the maximum relaxation.

[2] = tested on: normal human umbilical vein endothelial cells (HUVEC); experiment: HUVEC tube formation on Matrigel matrix; assay type: cell-based
Protocol: (§1) The Compound 1 was produced according to the method described in WO97/012869 and dissolved in dimethyl sulfoxide (solvent). As for cells used in the experiment, human aortic endothelial cells (HAEC (Lonza Group Ltd.)) and normal human umbilical vein endothelial cells (HUVEC; American Type Culture Collection) were used.
HUVEC were cultured using an endothelial cell growth medium (Endothelial Cell Growth Medium: Cell Applications) containing 10% FBS. In a 96-well plate coated with Matrigel matrix, HUVEC were seeded at a concentration of 1.5×10^4 cells per well, and incubated in a 200 μL of culture medium containing various concentrations of the […] or solvent alone for 18 hours. After that, total tube length in a field (Total tube length) was calculated by image analysis using a light microscope (E-400; Nikon Corp.).

[3] = Pharmacokinetics study in the rat, single oral dose; assay type: in vivo; details: non-fasting, serum, n=3
Protocol: The concentration of the Compound 1 in the serum was detected with a high-performance liquid chromatography system attached with a fluorescence detector. The maximum plasma concentration (Cmax) and time to the maximum plasma concentration (Tmax) were determined from the measurement of the drug concentration in the serum, half-life (T1/2), and AUC. The time curve was computed by a least squares method and a trapezoidal method, respectively.

[4] = tested on: human aortic endothelial cells (HAEC); experiment: Proliferative activity of HAEC (WST-8 assay); assay type: cell-based; details: 1 μM and 3 μM, 48 hours incubation, vs solvent control, n=3 (FIG. 1)
Protocol: as §1
HAEC were cultured using an endothelial cell growth medium (EGM-2 bullet kit; Lonza) containing 10% fetal bovine serum (FBS). The proliferative activity of HAEC was assessed by a WST-8 assay using a Cell Counting Kit (Dojindo Laboratories). In a 96-well plate, HAEC were seeded at a concentration of 5000 cells per well, and incubated for 24 hours. Subsequently, the medium in each well was exchanged to 100 μL of fresh culture medium containing various concentrations of the Compound 1 or solvent alone. After the 48 hours of subsequent incubation, 10 μL of WST-8 reagent was added to each well. The plate was incubated another 4 hours, and then the absorbance at 450 nm was measured with an absorbance plate reader.

[5] = tested on: rat femoral artery occlusion model; experiment: Luminal area of intramuscular artery in gastrocnemius muscle, rat femoral artery ligation model (α-SMA staining); assay type: in vivo; details: 30 mg/kg oral twice daily for 27 days, mean±standard error, n=16, ligated control 3315±416, sham 14642±1062, P<0.05
Protocol: (§2) The Compound 1 was produced according to the method described in WO97/012869 and was used by dissolving in dimethyl sulfoxide or suspending in 1% (W/W) of hydroxypropyl methyl cellulose aqueous solution. As for animals, 7 to 9 week-old Sprague-Dawley (Slc:SD) male rats were used. As for anesthesia for operation, pentobarbital.sodium was intraperitoneally administered at a dose of 50 mg/kg.
(§3) Bilateral femoral arteries were exposed and the arteries were ligated using a suture under anesthesia. For histological analysis, the Compound 1 or base alone was orally administered twice daily for 27 days starting on the day of operation. On Day 28, the left gastrocnemius muscle was extirpated and frozen in a Tissue-Tek O.C.T. compound (Sakura Finetech Japan Co., Ltd.). Tissue sections at a thickness of 10 μm were prepared by slicing the frozen tissue sample with a freezing microtome, and dried in an air and fixed with acetone. […] The positive staining with α-SMA was identified by an examination using a light microscope, and the luminal area of intramuscular artery was quantified by image analysis (Win ROOF; Mitani Co., Ltd.). The blood flow volume on Day 28 in the hindlimb muscle in this model was determined by measuring at two points, in other words before and after exercise, using Dye-Trak VII+ microspheres (Triton Technology, Inc.).

[6] = tested on: rat femoral artery occlusion model; experiment: Hindlimb muscle blood flow in rat hindlimb ischemia model by ligation of femoral artery (colored microspheres); assay type: in vivo; details: 30 mg/kg oral twice daily for 27 days
Protocol: as §2, §3
In particular detail, initially a pentobarbital.sodium solution was intraperitoneally administered to the rat at a dose of 50 mg/kg to anesthetize. […] Wave profile of blood pressure that is characteristic to the left ventricular was detected to confirm whether the catheter has reached to the left ventricular. The temporal pulse pressure and average blood pressure were measured with a sphygmomanometer via the blood pressure transducer. […]

[7] = tested on: lower-extremity ischemic mouse; details: long-term administration (Non-Patent Document 7); cited from earlier work
[8] = tested on: human aortic endothelial cells (HAEC); details: HAEC in vitro; eNOS phosphorylation via cAMP/PKA and PI3K/Akt, increased NO production (Non-Patent Document 6); cited from earlier work
[9] = Sprague-Dawley (Slc:SD), single oral 3 mg/kg
[10] = Sprague-Dawley (Slc:SD), single oral 10 mg/kg
[11] = Sprague-Dawley (Slc:SD), single oral 100 mg/kg
[12] = Sprague-Dawley, single oral 10 mg/kg
[13] = Sprague-Dawley, single oral 30 mg/kg

Q: Which “vasodilating effect on ring specimen of excised rat femoral artery” value [1] does the source give for O=C(NCCCOc1ccc2[nH]c(=O)ccc2c1)N(C1CC1)[C@@H]1CCCC[C@H]1O [Compound 1, (−)-6-[3-[3-cyclopropyl-3-[(1R,2R)-2-hydroxycyclohexyl]ureido]propoxy]-2(1H)-quinolinone] here?
A: dose-dependent vasodilating effect

Q: And the “angiogenesis in photographs of HUVEC tube formation” value ([2]; 0.01, 0.1, 1, 10, 100 μM (FIG. 2))?
A: no angiogenesis could be confirmed

Q: What about the “HUVEC tube formation, ratio of Total tube length with respect to the control” value ([2]; 0.01 to 100 μM, 18 hours, n=2 (FIG. 3)) of the same compound?
A: no significant difference with respect to the control

Q: What about the “angiogenic activity via direct action to endothelial cells” value ([2]; conclusion from HAEC proliferation and HUVEC tube formation) of the same compound?
A: does not have an angiogenic activity

Q: And the AUC(0-inf) [3, 9]?
A: 1.33 µM·h

Q: What about the AUC(0-t) [3, 9] of the same compound?
A: 0.83 µM·h

Q: And the Cmax [3, 9]?
A: 300 ± 60 nM

Q: And the Tmax [3, 9]?
A: 1 h

Q: And the half-life [3, 9]?
A: 2.64 h

Q: What about the AUC(0-t) [3, 10] of the same compound?
A: 2.38 µM·h

Q: What about the Cmax [3, 10] of the same compound?
A: 830 ± 140 nM

Q: And the Cmax ([3]; Sprague-Dawley (Slc:SD), single oral 30 mg/kg)?
A: 4730 ± 280 nM

Q: What about the AUC(0-inf) [3, 11] of the same compound?
A: 48.2 µM·h

Q: What about the AUC(0-t) [3, 11] of the same compound?
A: 47.1 µM·h

Q: And the Tmax [3, 11]?
A: 1 h

Q: And the half-life [3, 11]?
A: 2.19 h

Q: And the AUC(0-inf) [3, 12]?
A: 2.55 µM·h

Q: And the Tmax [3, 12]?
A: 1 h

Q: And the half-life [3, 12]?
A: 2 h

Q: And the AUC(0-inf) [3, 13]?
A: 14.8 µM·h

Q: What about the AUC(0-t) [3, 13] of the same compound?
A: 14.1 µM·h

Q: And the Tmax [3, 13]?
A: 2 h

Q: What about the half-life [3, 13] of the same compound?
A: 1.61 h

Q: What about the Cmax ([3]; Sprague-Dawley, single oral 100 mg/kg) of the same compound?
A: 9760 ± 1440 nM

Q: And the “effect on the proliferative activity of HAEC” value [4]?
A: no effect

Q: What about the “luminal area of the main artery in the gastrocnemius muscle” value [5] of the same compound?
A: 7100±824 μm^2

Q: What about the “blood flow in the gastrocnemius muscle after exercise” value ([6]; Day 28, after exercise, mean±standard error, n=20, control 0.561±0.034, P<0.001) of the same compound?
A: 0.818 ± 0.058 mL/min/g

Q: And the “blood flow in anterior tibialis muscle after exercise” value ([6]; Day 28, after exercise, mean±standard error, n=20, control 0.697±0.039, P<0.001)?
A: 0.992 ± 0.060 mL/min/g

Q: And the “hindlimb muscle blood flow before exercise” value ([6]; Day 28, before exercise (at rest), gastrocnemius and anterior tibialis)?
A: no change

Q: With O=C1CCc2cc(OCCCCc3nnnn3C3CCCCC3)ccc2N1 [cilostazol] as the compound, how does the “vascular density in lower-extremity muscles” value [7] read?
A: elevates

Q: What about the “tubulogenesis of endothelial cells” value [8] of the same compound?
A: promotes tubulogenesis of endothelial cells
